PubChem BioAssay AID1996
In brackets after ≈: the same amount, converted by molar mass.

Details: buffer; pH 7.4; 200.0 µM

Row | Compound | solubility kinetic
1 | COc1ccc(NC(=O)COc2ccc3c(c2)CCC3)cc1S(N)(=O)=O | 15.9 µg/mL (≈ 42.2 µM)
2 | O=C(NC(Cc1c[nH]c2ccccc12)C(=O)O)c1ccc2c(c1)OCO2 (stereo not given) | > 52.9 µg/mL
3 | c1ccc(-c2cc(-c3ccccc3)on2)cc1 | < 0.5 µg/mL
4 | CCOC(=O)c1sc2nc(C)nc(NC3CCC(O)CC3)c2c1C (stereo not given) | < 0.2 µg/mL
5 | Cc1ccc2c(C)c(C(=O)NCCN3CCCC(O)C3)oc2c1C (stereo not given) | 42.3 µg/mL (≈ 128 µM)
6 | Cc1ccccc1CN1CCc2cc([N+](=O)[O-])ccc21 | 1.9 µg/mL (≈ 7.08 µM)
7 | Fc1ccccc1-c1nc2nc3ccccc3nc2n1CC1CCCO1 (stereo not given) | > 52.3 µg/mL
8 | Nc1ccc(SCc2cccnc2)cc1 | 31 µg/mL (≈ 143 µM)
9 | CSc1ncccc1C(=O)OCc1ccccc1Cl | < 0.6 µg/mL
10 | COc1ccc(C(=O)COC(=O)c2ccccn2)cc1OC | 44.5 µg/mL (≈ 148 µM)
11 | COc1cc(OC)cc(C(=O)NCC(=O)OC2CCCCC2=O)c1 (stereo not given) | > 50.3 µg/mL
12 | COc1ccc(NC(=O)Nc2ccc3c(c2)CCC3)cc1 | < 0.3 µg/mL
13 | COc1ccc(C(=O)NCC(=O)OCC(=O)c2c(C)[nH]c3ccccc23)cc1OC | 6.1 µg/mL (≈ 14.9 µM)
14 | O=C(Nc1cc2c3c(c1)CC(=O)N3CCC2)c1ccc(F)cc1 | > 46.5 µg/mL
15 | CC(Cc1ccccc1)NC(=O)c1ccc(N)cc1 (stereo not given) | > 38.1 µg/mL
16 | Br.CN(C)C1=NCC(CSC(=N)N)S1 (stereo not given) | 32.5 µg/mL
17 | Cc1ccccc1OCc1ccc(C(=O)N2CC(C)OC(C)C2)o1 (stereo not given) | 47.8 µg/mL (≈ 145 µM)
18 | O=C(COC(=O)CC1CCS(=O)(=O)C1)Nc1ccc(F)cc1 (stereo not given) | > 49.4 µg/mL
19 | Cc1cc(C)c2ccc(Cl)cc2n1 | 1.5 µg/mL (≈ 7.83 µM)
20 | CC(=O)N1CCCC1(C(=O)O)c1ccccc1 (stereo not given) | 33.8 µg/mL (≈ 145 µM)
21 | Cc1cnc(=O)[nH]c1SCc1ccc([N+](=O)[O-])cc1 | 22.1 µg/mL (≈ 79.7 µM)
22 | O=C(COC(=O)C1CCC(=O)N1)Nc1cccc([N+](=O)[O-])c1 (stereo not given) | > 46.1 µg/mL
23 | COC(=O)Cn1c(=O)oc2ccc(C)cc21 | > 33.2 µg/mL
24 | C=CCNc1nc2c(c(=O)[nH]c(=O)n2C)n1CCOc1ccccc1 | 3.3 µg/mL (≈ 9.67 µM)

Row | Compound | solubility kinetic
25 | NS(=O)(=O)c1ccc(CNC(=O)Cc2ccccc2[N+](=O)[O-])cc1 | 50.1 µg/mL (≈ 143 µM)
26 | Cc1cc(NCc2cccnc2)no1 | 28 µg/mL (≈ 148 µM)
27 | CC(CN1CCCCC1)OC(=O)COc1ccc(Cl)cc1.Cl (stereo not given) | > 52.2 µg/mL
28 | COc1cc(NC(=O)c2ccccc2Cl)c2ncccc2c1 | < 0.3 µg/mL
29 | O=C(CN1C(=O)c2ccccc2S1(=O)=O)Nc1ccc([N+](=O)[O-])cc1 | 6 µg/mL (≈ 16.6 µM)
30 | CC(=O)N(c1cccc(Cl)c1)c1nc(C)cc(C)c1C#N | > 45 µg/mL
31 | O=C(NC1CCN(Cc2ccc3ccccc3c2)CC1)c1ccccc1 | 2.8 µg/mL (≈ 8.13 µM)
32 | CCN(CC)CCn1c(NC(=O)c2ccc(C)cc2)nc2ccccc21 | 25.9 µg/mL (≈ 73.9 µM)
33 | O=C(CNS(=O)(=O)c1ccccc1)NCC(=O)N1CCCCC1 | > 50.9 µg/mL
34 | CCc1ccc(NC(=S)N2CCCCCCC2)cc1 | 35.1 µg/mL (≈ 127 µM)
35 | Cc1nn(-c2ccc(C(=O)O)cc2)c2c1C(=O)CC(C)(C)C2 | > 44.8 µg/mL
36 | CC(=O)Oc1ccccc1C(=O)N(C1CCCCC1)C1CCCCC1 | 44.5 µg/mL (≈ 130 µM)
37 | O=C1[C@@H]2CSCN2C(=O)CN1Cc1ccccc1F | > 42 µg/mL
38 | Cc1ccc(C)c(-n2c(C)nc3ccccc3c2=O)c1 | > 39.6 µg/mL
39 | O=C1NC(=S)N/C1=C/c1ccc2c(c1)OCO2 | 1.5 µg/mL (≈ 6.04 µM)
40 | CCOC(=O)c1c(C)[nH]c(C)c1C(=O)COC(=O)/C=C/c1ccco1 | > 51.8 µg/mL
41 | Cc1csc(NC(=O)Cc2ccc(Cl)cc2)n1 | 22.2 µg/mL (≈ 83.2 µM)
42 | CCOC(=O)Nc1ccc(S(=O)(=O)Nc2onc(C)c2C)cc1 | 47.2 µg/mL (≈ 139 µM)
43 | Cc1ccc(O)c(NC(=S)NC(=O)C(C)C)c1 | > 37.8 µg/mL
44 | CC(=O)N1c2ccc(S(=O)(=O)N3CCCCC3)cc2CC1C (stereo not given) | > 48.4 µg/mL
45 | C=CCc1cccc(CNc2nc3ccccc3n2C)c1O | 0.3 µg/mL (≈ 1.02 µM)
46 | CCn1c(NC(=O)C(C)C)c(-c2ccccc2)c(=O)c2ccccc21 | 30.9 µg/mL (≈ 92.4 µM)
47 | COc1ccc(C(=O)NCC2CCCCC2)cc1S(=O)(=O)N1CCOCC1 | > 59.5 µg/mL
48 | CNC(=S)Nc1ccc([N+](=O)[O-])c(C)c1 | 32.3 µg/mL (≈ 143 µM)

Row | Compound | solubility kinetic
49 | O=C(NC1CCCC1)C1CCCN1C(=O)Oc1ccccc1 (stereo not given) | 41.9 µg/mL (≈ 139 µM)
50 | O=C(Nc1cscc1S(=O)(=O)c1ccccc1)c1ccccc1Cl | 10.3 µg/mL (≈ 27.3 µM)
51 | O=c1cc(CN2CCOCC2)c2cc(Cl)ccc2o1 | > 42 µg/mL
52 | Cc1nc(SCCO)c([N+](=O)[O-])[nH]1 | > 30.5 µg/mL
53 | CCS(=O)(=O)CCn1c([N+](=O)[O-])cnc1C | > 37.1 µg/mL
54 | CCOC(=O)c1cc2c(ccn2C)n1Cc1ccccc1Cl | < 0.3 µg/mL
55 | Cc1ccc(NC(=O)CNC(C)c2ccccc2)cc1.Cl (stereo not given) | > 45.7 µg/mL
56 | CC1C(=O)N2CCCc3cc(NC(=O)c4ccccc4F)cc1c32 (stereo not given) | > 48.7 µg/mL
57 | CC(=O)Nc1ccc2sc(C)nc2c1 | > 30.9 µg/mL
58 | Cc1ccc(C(=O)NCCNS(=O)(=O)c2ccccc2[N+](=O)[O-])cc1 | > 54.5 µg/mL
59 | O=C(Cc1ccc(Cl)cc1Cl)NCc1cccnc1 | > 44.3 µg/mL
60 | O=C(NCc1ccccc1)N1CCOCC1 | > 33 µg/mL
61 | Cc1ccc(NC(=O)COC(=O)C2(CC(=O)NC(C)C)CCCC2)cc1C | 3.6 µg/mL (≈ 9.61 µM)
62 | Cc1noc(C)c1C(=O)OCC(=O)NC1CCCCC1C (stereo not given) | > 44.2 µg/mL
63 | CCCOc1ccc(N2CC(C(=O)NC3=NCCS3)CC2=O)cc1 (stereo not given) | 43.8 µg/mL (≈ 126 µM)
64 | CCOC(=O)C1CCN(C(=O)COc2cccc3ccccc23)CC1 | 43.2 µg/mL (≈ 127 µM)
65 | CC(NC(=O)CN1C(=O)NC2(CCCCCCC2)C1=O)c1ccccc1 (stereo not given) | > 53.6 µg/mL
66 | CC(=O)c1sc2nc(CSc3nncn3C)[nH]c(=O)c2c1C | > 50.3 µg/mL
67 | N#Cc1cn(Cc2ccccc2)c(=O)[nH]c1=O | > 34.1 µg/mL
68 | Cc1ccc(C#N)c(SCc2cccc(Br)c2)n1 | < 0.3 µg/mL
69 | O=C(Nc1nccs1)c1ncc(Cl)c(Cl)c1Cl | 12.5 µg/mL (≈ 40.5 µM)
70 | O=C(COC(=O)c1cccs1)NC1CCCC1 | 36.5 µg/mL (≈ 144 µM)
71 | O=C(Nc1ccc(F)cc1F)c1ccc2c(c1)OCCO2 | 14 µg/mL (≈ 48.1 µM)
72 | CCC(C)(CC(=O)Nc1nccs1)c1ccccc1 (stereo not given) | > 41.2 µg/mL

Row | Compound | solubility kinetic
73 | O=C(CCOc1ccc(F)cc1)Nc1nccs1 | 5.6 µg/mL (≈ 21 µM)
74 | COc1ccc(C(=O)O/N=C(/c2cccs2)C(C)(C)C)cc1 | 2.4 µg/mL (≈ 7.56 µM)
75 | N#C/C(=C(/O)c1cccs1)c1nc2ccccc2[nH]1 | 1.2 µg/mL (≈ 4.49 µM)
76 | O=C(c1ccc([N+](=O)[O-])cc1)N1CCN(C(=O)c2ccco2)CC1 | > 49.4 µg/mL
77 | CN(C(=O)COC(=O)c1ccc(Cl)nc1)C1CCS(=O)(=O)C1 (stereo not given) | > 52 µg/mL
78 | CCOC(=O)C(C)Oc1ccc(NC(=O)C(Cl)(Cl)Cl)cc1 (stereo not given) | 51.1 µg/mL (≈ 144 µM)
79 | CS(=O)(=O)N1CCc2cc(C(=O)N3CCCC3)ccc21 | > 44.2 µg/mL
80 | CCN(CC)CCNC(=O)c1cc2cc3ccc(OC)cc3nc2o1 | 45.9 µg/mL (≈ 134 µM)
81 | O=C(Nc1ccc(Cl)cc1)NC1CCCCNC1=O (stereo not given) | > 42.3 µg/mL
82 | COc1ccc(-n2nc(C(=O)N(C)C)nc2-c2ccccc2)cc1 | > 48.4 µg/mL
83 | Cc1ccc(C(=O)NCCCNC(=O)c2ccc(Cl)cc2)cn1 | 36.6 µg/mL (≈ 110 µM)
84 | CCn1ncc(-c2csc(N)n2)c1C | > 31.2 µg/mL
85 | Br.Cn1ccnc1SCC(=O)c1ccc(Cl)cc1 | 48.9 µg/mL
86 | O=C(NCCc1ccccc1)C1CCC(=O)N1CCc1ccccc1 (stereo not given) | 46.2 µg/mL (≈ 137 µM)
87 | COc1ccccc1C(=O)C1CCCN(C(=O)Nc2ccccc2F)C1 (stereo not given) | > 53.5 µg/mL
88 | CC(C)Oc1ccc(C(=O)Nc2nc3ccccc3[nH]2)cc1 | 1.3 µg/mL (≈ 4.4 µM)
89 | CC(C)OC(=O)/C(=C\c1ccccc1)NC(=O)c1ccccc1 | > 46.4 µg/mL
90 | Cc1ccc(-c2cnco2)cc1 | < 0.3 µg/mL
91 | CCOC(=O)c1ccccc1NC(=O)Cc1ccc(OC)c(S(=O)(=O)N2CCOCC2)c1 | 60.4 µg/mL (≈ 131 µM)
92 | COC(=O)c1ccc(C2NCCc3cc(OC)c(OC)cc32)cc1 (stereo not given) | > 49.1 µg/mL
93 | Cc1cc(C)cc(N(CCC#N)C(=O)CSc2nc3ccccc3c(=O)[nH]2)c1 | 28.8 µg/mL (≈ 73.4 µM)
94 | CCN1CC(CN(C)Cc2nc(-c3ccco3)oc2C)CC1=O (stereo not given) | > 47.6 µg/mL
95 | CC(CN1CCC(O)CC1)c1ccccc1 (stereo not given) | 26.6 µg/mL (≈ 121 µM)
96 | Cc1ccccc1CC1SC(N)=NC1=O (stereo not given) | 21.8 µg/mL (≈ 99 µM)

Row | Compound | solubility kinetic
97 | CC(C)(C)c1csc(NC(=O)C2=COCCO2)n1 | 40.2 µg/mL (≈ 150 µM)
98 | O=c1c2ccccc2nc(/C=C/c2ccccn2)n1-c1ccccc1 | 0.6 µg/mL (≈ 1.84 µM)
99 | Cc1ccc(NC(CC(=O)c2ccccc2)C(=O)O)cc1Cl (stereo not given) | 10.2 µg/mL (≈ 32.1 µM)
100 | COc1cc(SC)ccc1C(=O)N(Cc1ccccc1)c1ccccc1 | 6.3 µg/mL (≈ 17.3 µM)
101 | CN/C(=C\[N+](=O)[O-])NCCSCc1csc(CN(C)C)n1 | > 49.7 µg/mL
102 | CCCOc1cccc(C(=O)NCCNC(=O)c2ccccn2)c1 | > 49.1 µg/mL
103 | COc1ccc(CCNC(=O)c2cccnc2Cl)cc1OC | > 48.1 µg/mL
104 | CN(C1CCCCC1)S(=O)(=O)c1ccc(-c2ccccn2)s1 | 0.5 µg/mL (≈ 1.49 µM)
105 | Cc1nn(CC(=O)OCC(=O)Nc2cccc(S(N)(=O)=O)c2)c(C)c1[N+](=O)[O-] | > 61.7 µg/mL
106 | COc1ccc(NC(=O)Nc2cnccn2)cc1 | 8.1 µg/mL (≈ 33.2 µM)
107 | COc1ccc(CCNC(=O)Cc2ccc(C)cc2)cc1OC | > 47 µg/mL
108 | O=C(O)COc1ccccc1-c1nc(-c2ccccc2)c(-c2ccccc2)[nH]1 | 46.1 µg/mL (≈ 124 µM)
109 | O=C(COC(=O)c1cccnc1Cl)Nc1ccc(S(=O)(=O)N2CCOCC2)cc1 | 57.5 µg/mL (≈ 131 µM)
110 | CC(C)c1cccc(C(C)C)c1OCCCCCN1CCOCC1 | 33.4 µg/mL (≈ 100 µM)
111 | CCC(C)NC(=O)c1cn(-c2cccc(OC)c2)c(=O)c2ccccc12 (stereo not given) | 46.9 µg/mL (≈ 134 µM)
112 | COc1ccc(CCCC(=O)NCCc2ccccc2)cc1 | 35.2 µg/mL (≈ 118 µM)
113 | COC(=O)CSc1[nH]c2cc(C)ccc2c1[N+](=O)[O-] | > 42 µg/mL
114 | CCOC(=O)c1cccc(NC(=O)c2ccccc2C)c1 | 33.1 µg/mL (≈ 117 µM)
115 | COc1ccc(Cn2c(C(C)C)nc3sc4ccccc4c(=O)c3c2=O)cc1 | < 0.4 µg/mL
116 | COc1ccc(S(=O)(=O)N2CCCCCC2)cc1NC(=O)CN1C(=O)CNC1=O | > 63.7 µg/mL
117 | COCC(=O)Nc1cc(C)cn(Cc2ccccc2Cl)c1=O | 41.4 µg/mL (≈ 129 µM)
118 | Cc1ccc(C2=Nc3ccccc3N=C(C(Cl)Cl)C2)cc1 | 3.1 µg/mL (≈ 9.77 µM)
119 | Cc1ccc(NC(=O)C2CCCN(c3ncccn3)C2)c(C)c1 (stereo not given) | 8.5 µg/mL (≈ 27.4 µM)
120 | COc1ccc(C(=O)N2CCC(C(=O)NC3CC3)CC2)cc1 | > 45.4 µg/mL
